We go through 21 compounds from patent US9896441B2 (Lycera Corporation, priority 2014, dated 2018).

Structures are written as SMILES.

One test has as its target T1, Gal4-RORγ-LBD (Homo sapiens, UniProt P51449).
T1 construct: expressed in transfected cells
T1 sequence (P51449 269-508 limits assumed): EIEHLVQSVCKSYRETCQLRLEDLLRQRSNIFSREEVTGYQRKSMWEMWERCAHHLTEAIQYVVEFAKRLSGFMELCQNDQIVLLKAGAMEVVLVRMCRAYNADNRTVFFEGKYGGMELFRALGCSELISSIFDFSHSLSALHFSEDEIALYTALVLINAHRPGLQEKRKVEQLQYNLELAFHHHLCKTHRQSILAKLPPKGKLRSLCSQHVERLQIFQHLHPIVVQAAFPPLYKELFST
Put plainly: Gal4-RORγ Luciferase Reporter Assay in HEK-293T Cells. The class given is cell-based. The settings on record: HEK-293 cells, luciferase reporter, with ursolic acid. Put shortly:
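HEK-293 cells were co-transfected with Gal4-RORγ-LBD and a Gal4-luciferase reporter, then exposed overnight at 37 °C to compounds with […] ursolic acid present (0.2% DMSO). Luminescence was read with One-Glo after 10 min at RT, untreated signal was set as 100, and Max Response was taken as the upper plateau of a 4-parameter logistic fit.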
A general note: Reporter assays use an easily measured gene product as a stand-in for the process of interest.

A further test concerns the target T2, RORγ-LBD (Homo sapiens, UniProt P51449).
T2 construct: made in house; host or cells: SF9 cells (baculovirus); used as diluted lysate
T2 sequence (P51449 269-508 limits assumed): T1 sequence (P51449 269-508 limits assumed)
In words: RORγ-Ligand Binding Domain (LBD) TR-FRET Assay. The settings on record: RORγ-LBD TR-FRET. In kind it is biochemical. Put shortly: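 SF9 lysate containing His-RORγ-LBD, ~3 nM final; coactivator peptide biotin-SRC1 LXXLL, 200 nM final; ursolic acid 2 μM final; DMSO 1% final; Tris pH 7.0 buffer with KCl, EDTA, DTT, BSA. TR-FRET format.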
(In general: TR-FRET usually uses a lanthanide donor and a delayed reading to cut background.)

As to `CCOc1ncc(Cl)cc1S(=O)(=O)N1C[C@H](CCC(=O)OC)Oc2ccc(/C=C/c3c(F)cccc3Cl)cc21` [Example 89CW, methyl (S,E)-3-(4-((5-chloro-2-ethoxypyridin-3-yl)sulfonyl)-6-(2-chloro-6-fluorostyryl)-3,4-dihydro-2H-benzo[b][1,4]oxazin-2-yl)propanoate], the results for the EC50 on Gal4-RORγ-LBD and at RORγ-LBD were 500 to 5000 nM and less than 500 nM, respectively.

On to `CCOc1ncc(Cl)cc1S(=O)(=O)N1C[C@H](CCC(=O)O)Oc2ccc(/C=C/c3c(F)cccc3Cl)cc21` [Example 89CX, (S,E)-3-(4-((5-chloro-2-ethoxypyridin-3-yl)sulfonyl)-6-(2-chloro-6-fluorostyryl)-3,4-dihydro-2H-benzo[b][1,4]oxazin-2-yl)propanoic acid], for which the values for the EC50 on Gal4-RORγ-LBD and on RORγ-LBD were 500 to 5000 nM and less than 500 nM, respectively.

With `CCOc1ncc(Cl)cc1S(=O)(=O)N1C[C@H](CCC(=O)OC)Oc2ccc(/C=C/c3c(Cl)cccc3C(F)(F)F)cc21` [Example 89CY, methyl (S,E)-3-(4-((5-chloro-2-ethoxypyridin-3-yl)sulfonyl)-6-(2-chloro-6-(trifluoromethyl)-styryl)-3,4-dihydro-2H-benzo-[b][1,4]oxazin-2-yl)propanoate], the figures for the EC50 at Gal4-RORγ-LBD and at RORγ-LBD were 500 to 5000 nM and less than 500 nM, respectively.

Take `CCOc1ncc(Cl)cc1S(=O)(=O)N1C[C@H](CCC(=O)O)Oc2ccc(/C=C/c3c(Cl)cccc3C(F)(F)F)cc21` [Example 89CZ, (S,E)-3-(4-((5-chloro-2-ethoxypyridin-3-yl)sulfonyl)-6-(2-chloro-6-(trifluoromethyl)-styryl)-3,4-dihydro-2H-benzo-[b][1,4]oxazin-2-yl)propanoic acid]: the EC50 on Gal4-RORγ-LBD is 500 to 5000 nM; on RORγ-LBD, less than 500 nM.

Turning to `COC(=O)CC[C@H]1CN(S(=O)(=O)c2cccc(OC(F)F)c2)c2cc(/C=C/c3ccccn3)ccc2O1` [Example 89D, (S,E)-methyl 3-(4-((3-(difluoromethoxy)phenyl)sulfonyl)-6-(2-(pyridin-2-yl)vinyl)-3,4-dihydro-2H-benzo[b][1,4]oxazin-2-yl)propanoate], the figures for the EC50 at Gal4-RORγ-LBD and at RORγ-LBD were 500 to 5000 nM and less than 500 nM, respectively.

For the compound `CCOc1nn(CC)cc1S(=O)(=O)N1C[C@H](CCC(=O)OC)Oc2ccc(/C=C/c3ccc(Cl)cc3)cc21` [Example 89DA, methyl (S,E)-3-(6-(4-chlorostyryl)-4-((3-ethoxy-1-ethyl-1H-pyrazol-4-yl)sulfonyl)-3,4-dihydro-2H-benzo[b][1,4]oxazin-2-yl)propanoate], the EC50 on Gal4-RORγ-LBD and on RORγ-LBD was greater than 10000 nM each time.

On to `CCOc1nn(CC)cc1S(=O)(=O)N1C[C@H](CCC(=O)O)Oc2ccc(/C=C/c3ccc(Cl)cc3)cc21` [Example 89DB, (S,E)-3-(6-(4-chlorostyryl)-4-((3-ethoxy-1-ethyl-1H-pyrazol-4-yl)sulfonyl)-3,4-dihydro-2H-benzo[b][1,4]oxazin-2-yl)propanoic acid], for which the 50% effective concentration (EC50) on Gal4-RORγ-LBD and at RORγ-LBD was greater than 10000 nM in each case.

For `CCOc1nn(CC)cc1S(=O)(=O)N1C[C@H](CCC(=O)O)Oc2ccc(/C=C/c3ccc(C#N)cc3)cc21` [Example 89DC, (S,E)-3-(6-(4-cyanostyryl)-4-((3-ethoxy-1-ethyl-1H-pyrazol-4-yl)sulfonyl)-3,4-dihydro-2H-benzo[b][1,4]oxazin-2-yl)propanoic acid], the EC50 on Gal4-RORγ-LBD and on RORγ-LBD was greater than 10000 nM each time.

For `COC(=O)CC[C@H]1CN(S(=O)(=O)c2cccc(C(F)(F)F)c2)c2cc(/C=C/c3ccccn3)ccc2O1` [Example 89DH, methyl (S,E)-3-(6-(2-(pyridin-2-yl)vinyl)-4-((3-(trifluoromethyl)phenyl)sulfonyl)-3,4-dihydro-2H-benzo[b][1,4]oxazin-2-yl)propanoate], the EC50 was 500 to 5000 nM at Gal4-RORγ-LBD and less than 500 nM on RORγ-LBD.

Turning to `COC(=O)CC[C@H]1CN(S(=O)(=O)c2cccc(C(F)(F)F)c2)c2cc(/C=C/c3cccc(Cl)c3)ccc2O1` [Example 89DI, methyl (S,E)-3-(6-(3-chlorostyryl)-4-((3-(trifluoromethyl)phenyl)-sulfonyl)-3,4-dihydro-2H-benzo[b][1,4]oxazin-2-yl)propanoate], the EC50 was greater than 10000 nM on Gal4-RORγ-LBD and less than 500 nM at RORγ-LBD.

Regarding `CCOc1nn(CC)cc1S(=O)(=O)N1C[C@H](CCC(=O)OC)Oc2ccc(/C=C/c3ncccc3Cl)cc21` [Example 89DJ, methyl (S,E)-3-(6-(2-(3-chloropyridin-2-yl)vinyl)-4-((3-ethoxy-1-ethyl-1H-pyrazol-4-yl)sulfonyl)-3,4-dihydro-2H-benzo[b][1,4]oxazin-2-yl)propanoate], the EC50 at Gal4-RORγ-LBD was 500 to 5000 nM; on RORγ-LBD it was less than 500 nM.

With `COc1cccnc1/C=C/c1ccc2c(c1)N(S(=O)(=O)c1cccc(C(F)(F)F)c1)C[C@H](CCC(=O)O)O2` [Example 89DK, (S,E)-3-(6-(2-(3-methoxypyridin-2-yl)vinyl)-4-((3-(trifluoromethyl)phenyl)-sulfonyl)-3,4-dihydro-2H-benzo[b][1,4]oxazin-2-yl)propanoic acid], the EC50 at Gal4-RORγ-LBD is 500 to 5000 nM; at RORγ-LBD it was less than 500 nM.

`N#Cc1cccnc1/C=C/c1ccc2c(c1)N(S(=O)(=O)c1cccc(C(F)(F)F)c1)C[C@H](CCC(=O)O)O2` [Example 89DL, (S,E)-3-(6-(2-(3-cyanopyridin-2-yl)vinyl)-4-((3-(trifluoromethyl)-phenyl)sulfonyl)-3,4-dihydro-2H-benzo[b][1,4]oxazin-2-yl)propanoic acid]: the EC50 on Gal4-RORγ-LBD is 500 to 5000 nM; on RORγ-LBD it was less than 500 nM.

`CCOc1ncc(C(F)(F)F)cc1S(=O)(=O)N1C[C@H](CCC(=O)O)Oc2ccc(/C=C/c3c(Cl)cccc3C(F)(F)F)cc21` [Example 89DM, (S,E)-3-(6-(2-chloro-6-(trifluoromethyl)styryl)-4-((2-ethoxy-5-(trifluoromethyl)-pyridin-3-yl)sulfonyl)-3,4-dihydro-2H-benzo[b][1,4]-oxazin-2-yl)propanoic acid]: the EC50 on Gal4-RORγ-LBD and at RORγ-LBD was less than 500 nM each time.

For `CCOc1ncc(C(F)(F)F)cc1S(=O)(=O)N1C[C@H](CCC(=O)OC)Oc2ccc(/C=C/c3c(Cl)cccc3C(F)(F)F)cc21` [Example 89DN, methyl (S,E)-3-(6-(2-chloro-6-(trifluoromethyl)styryl)-4-((2-ethoxy-5-(trifluoromethyl)-pyridin-3-yl)sulfonyl)-3,4-dihydro-2H-benzo[b][1,4]-oxazin-2-yl)propanoate], the EC50 at Gal4-RORγ-LBD was 500 to 5000 nM; at RORγ-LBD it was less than 500 nM.

On to `CCOc1nn(CC)cc1S(=O)(=O)N1C[C@H](CCC(=O)O)Oc2ccc(/C=C/c3c(Cl)cccc3C(F)(F)F)cc21` [Example 89DO, (S,E)-3-(6-(2-chloro-6-(trifluoromethyl)styryl)-4-((3-ethoxy-1-ethyl-1H-pyrazol-4-yl)sulfonyl)-3,4-dihydro-2H-benzo[b][1,4]oxazin-2-yl)propanoic acid], for which the EC50 on Gal4-RORγ-LBD and on RORγ-LBD was less than 500 nM in each case.

Take `CCOc1nn(CC)cc1S(=O)(=O)N1C[C@H](CCC(=O)OC)Oc2ccc(/C=C/c3c(Cl)cccc3C(F)(F)F)cc21` [Example 89DP, methyl (S,E)-3-(6-(2-chloro-6-(trifluoromethyl)styryl)-4-((3-ethoxy-1-ethyl-1H-pyrazol-4-yl)sulfonyl)-3,4-dihydro-2H-benzo[b][1,4]oxazin-2-yl)propanoate]: the EC50 at Gal4-RORγ-LBD and on RORγ-LBD was less than 500 nM each time.

Take `O=C(O)CC[C@H]1CN(S(=O)(=O)c2cccc(OC(F)F)c2)c2cc(/C=C/c3c(Cl)cccc3C(F)(F)F)ccc2O1` [Example 89DQ, (S,E)-3-(6-(2-chloro-6-(trifluoromethyl)styryl)-4-((3-(difluoromethoxy)phenyl)sulfonyl)-3,4-dihydro-2H-benzo[b][1,4]oxazin-2-yl)propanoic acid]: the EC50 at Gal4-RORγ-LBD and on RORγ-LBD was less than 500 nM each time.

Turning to `O=C(O)CC[C@H]1CN(S(=O)(=O)c2cccc(OC(F)F)c2)c2cc(/C=C/c3ncccc3Cl)ccc2O1` [Example 89DT, (S,E)-3-(6-(2-(3-chloropyridin-2-yl)vinyl)-4-((3-(difluoromethoxy)phenyl)sulfonyl)-3,4-dihydro-2H-benzo[b][1,4]-oxazin-2-yl)propanoic acid], the concentration for a half-maximal effect (EC50) at Gal4-RORγ-LBD is 500 to 5000 nM; at RORγ-LBD, less than 500 nM.

As to `CCOc1ncc(C(F)(F)F)cc1S(=O)(=O)N1C[C@H](CCC(=O)O)Oc2ccc(/C=C/c3c(F)cccc3Cl)cc21` [Example 89DU, (S,E)-3-(6-(2-chloro-6-fluorostyryl)-4-((2-ethoxy-5-(trifluoromethyl)pyridin-3-yl)sulfonyl)-3,4-dihydro-2H-benzo[b][1,4]oxazin-2-yl)propanoic acid], the values for the EC50 at Gal4-RORγ-LBD and at RORγ-LBD were 500 to 5000 nM and less than 500 nM, respectively.

Turning to `CCOc1ncc(C(F)(F)F)cc1S(=O)(=O)N1C[C@H](CCC(=O)OC)Oc2ccc(/C=C/c3c(F)cccc3Cl)cc21` [Example 89DV, methyl (S,E)-3-(6-(2-chloro-6-fluorostyryl)-4-((2-ethoxy-5-(trifluoromethyl)pyridin-3-yl)sulfonyl)-3,4-dihydro-2H-benzo[b][1,4]oxazin-2-yl)propanoate], the values for the EC50 on Gal4-RORγ-LBD and at RORγ-LBD were 500 to 5000 nM and less than 500 nM, respectively.

As usually defined, the EC50 is the concentration at which the effect is half-maximal.
